Results published in PubChem BioAssay AID192 (DTP/NCI, 2004).
Values joined by “and” are separate entries in the source; they are usually repeats but may differ in a detail not shown here. Identical values can stand only once. Inconclusive results and toxic doses are left out. The calls were made as follows: active = survival T/C of 150% or more; inactive = T/C below 125% in these data.

Test system: BDF1 mice, B16 melanoma ip, median survival T/C
Experiment: NCI In Vivo Anticancer Drug Screen. Data for tumor model B16 Melanoma (intraperitoneal) in B6D2F1 (BDF1) mice
Conditions: endpoint: median survival time, higher = longer survival
Summary of the method: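 Antitumor activity is assessed in mice bearing a transplanted tumor, with survival or tumor size compared against vehicle-dosed controls and expressed as T/C.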

[1] = dose: 100.0 mg/kg/injection, schedule: Q01DX009 (ip), vehicle: Klucel (hydroxypropylcellulose) (HPC)
[2] = dose: 200.0 mg/kg/injection, schedule: Q01DX009 (ip), vehicle: Klucel (hydroxypropylcellulose) (HPC)
[3] = dose: 400.0 mg/kg/injection, schedule: Q01DX009 (ip), vehicle: Klucel (hydroxypropylcellulose) (HPC)
[4] = dose: 100.0 mg/kg/injection, schedule: Q01DX009 (ip), vehicle: saline
[5] = dose: 25.0 mg/kg/injection, schedule: Q01DX009 (ip), vehicle: saline
[6] = dose: 25.0 mg/kg/injection, schedule: Q01DX009 (ip), vehicle: Klucel (hydroxypropylcellulose) (HPC)
[7] = dose: 50.0 mg/kg/injection, schedule: Q01DX009 (ip), vehicle: Klucel (hydroxypropylcellulose) (HPC)
[8] = dose: 12.5 mg/kg/injection, schedule: Q01DX009 (ip), vehicle: saline with Tween-80
[9] = dose: 25.0 mg/kg/injection, schedule: Q01DX009 (ip), vehicle: saline with Tween-80
[10] = dose: 50.0 mg/kg/injection, schedule: Q01DX009 (ip), vehicle: saline with Tween-80
[11] = dose: 200.0 mg/kg/injection, schedule: Q01DX009 (ip), vehicle: saline with Tween-80
[12] = dose: 50.0 mg/kg/injection, schedule: Q04DX003 (ip), vehicle: Klucel (hydroxypropylcellulose) (HPC)
[13] = dose: 100.0 mg/kg/injection, schedule: Q04DX003 (ip), vehicle: Klucel (hydroxypropylcellulose) (HPC)
[14] = dose: 200.0 mg/kg/injection, schedule: Q04DX003 (ip), vehicle: Klucel (hydroxypropylcellulose) (HPC)

Measured: T/C

Cc1ccc(S(=O)(=O)[O][Pb]([CH3])([CH3])[CH3])cc1
inactive: dose: 0.18 mg/kg/injection, schedule: Q01DX009 (ip), vehicle: saline 97 % of control | dose: 0.37 mg/kg/injection, schedule: Q01DX009 (ip), vehicle: saline 92 % of control | dose: 0.75 mg/kg/injection, schedule: Q01DX009 (ip), vehicle: saline 104 % of control | dose: 1.5 mg/kg/injection, schedule: Q01DX009 (ip), vehicle: saline 97 % of control

Cc1ccc(C2NC(=O)c3ccccc3N2)c(C)c1 (stereo unspecified)
inactive: [1] 109 % of control | [2] 109 % of control | [3] 109 % of control

CCOC(=O)NC(C)(C)CC(C)(C)C
inactive: [1] 106 % of control

c1cc2cc3c(cc2cc1CC1=NCCc2cc4c(cc21)OCO4)OCO3
inactive: dose: 150.0 mg/kg/injection, schedule: Q01DX009 (ip), vehicle: other 102 % of control

COc1cc2c(c(OC)c1OC)-c1ccc(SC)c(=O)cc1[C@@H](NC1OC(CO)C(O)C(O)C1O)CC2 (stereo partly specified)
inactive: [4] 120 % of control

CC[N+]1(C2CCC3CCC2C3O)CCOCC1 (stereo unspecified)
inactive: [5] 105 % of control | dose: 50.0 mg/kg/injection, schedule: Q01DX009 (ip), vehicle: saline 105 % of control | [4] 105 % of control

c1cc2cc3c(cc2cc1CC1NCCc2cc4c(cc21)OCO4)OCO3 (stereo unspecified)
inactive: [6] 97 % of control | [7] 89 % of control | [1] 94 % of control

CC1(C)COCN1COC1CCCCC1
inactive: [8] 100 % of control | [9] 105 % of control and 115 % of control | [10] 105 % of control and 119 % of control | [11] 110 % of control

CN(C)CC/C=C1\c2ccccc2Sc2ccc(Cl)cc21
inactive: dose: 0.12 mg/kg/injection, schedule: Q01DX009 (ip), vehicle: Klucel (hydroxypropylcellulose) (HPC) 95 % of control | dose: 0.24 mg/kg/injection, schedule: Q01DX009 (ip), vehicle: Klucel (hydroxypropylcellulose) (HPC) 86 % of control | dose: 0.48 mg/kg/injection, schedule: Q01DX009 (ip), vehicle: Klucel (hydroxypropylcellulose) (HPC) 88 % of control | dose: 1.95 mg/kg/injection, schedule: Q01DX009 (ip), vehicle: Klucel (hydroxypropylcellulose) (HPC) 86 % of control | dose: 7.0 micrograms/kg/injection, schedule: Q01DX009 (ip), vehicle: Klucel (hydroxypropylcellulose) (HPC) 105 % of control | dose: 15.0 micrograms/kg/injection, schedule: Q01DX009 (ip), vehicle: Klucel (hydroxypropylcellulose) (HPC) 107 % of control | dose: 30.0 micrograms/kg/injection, schedule: Q01DX009 (ip), vehicle: Klucel (hydroxypropylcellulose) (HPC) 105 % of control | dose: 60.0 micrograms/kg/injection, schedule: Q01DX009 (ip), vehicle: Klucel (hydroxypropylcellulose) (HPC) 105 % of control | dose: 120.0 micrograms/kg/injection, schedule: Q01DX009 (ip), vehicle: Klucel (hydroxypropylcellulose) (HPC) 98 % of control

c1ccc2[nH]c(/N=N/c3nc4ccccc4[nH]3)nc2c1
inactive: [1] 102 % of control | [2] 102 % of control | [3] 91 % of control

COC(=O)[C@H]1[C@H]2C[C@@H]3c4[nH]c5cc(OC)ccc5c4CCN3C[C@H]2C[C@@H](OC(=O)c2cc(OC)c(OC)c(OC)c2)[C@@H]1OC
inactive: dose: 0.04 mg/kg/injection, schedule: Q01DX009 (ip), vehicle: saline 91 % of control | dose: 0.09 mg/kg/injection, schedule: Q01DX009 (ip), vehicle: saline 91 % of control | dose: 0.19 mg/kg/injection, schedule: Q01DX009 (ip), vehicle: saline 90 % of control | dose: 0.39 mg/kg/injection, schedule: Q01DX009 (ip), vehicle: saline 91 % of control | dose: 0.78 mg/kg/injection, schedule: Q01DX009 (ip), vehicle: saline 88 % of control

C[C@]12CC[C@H]3[C@@H](CCC4=C[C@@H](OC5OCC(OC6OC(CO)C(O)C(O)C6O)C(O)C5O)CC[C@@]43C=O)[C@@]1(O)CCC2C1=CC(=O)OC1 (stereo partly specified)
inactive: dose: 1.25 mg/kg/injection, schedule: Q01DX009 (ip), vehicle: saline 100 % of control | dose: 2.5 mg/kg/injection, schedule: Q01DX009 (ip), vehicle: saline 105 % of control | dose: 5.0 mg/kg/injection, schedule: Q01DX009 (ip), vehicle: saline 89 % of control

CCCCN(CCCC)CC(O)c1ccnc2cc3c(cc12)OCO3 (stereo unspecified)
inactive: dose: 25.0 mg/kg/injection, schedule: Q04DX003 (ip), vehicle: Klucel (hydroxypropylcellulose) (HPC) 94 % of control | [12] 89 % of control | [13] 89 % of control

O=C1NC2C(NC(=O)N2Cl)N1Cl (stereo unspecified)
inactive: dose: 3.13 mg/kg/injection, schedule: Q01DX009 (ip), vehicle: saline with Tween-80 101 % of control | dose: 6.25 mg/kg/injection, schedule: Q01DX009 (ip), vehicle: saline with Tween-80 98 % of control | [8] 90 % of control and 98 % of control | dose: 12.5 mg/kg/injection, schedule: Q01DX009 (ip), vehicle: saline 101 % of control | [9] 86 % of control | [5] 94 % of control | dose: 25.0 mg/kg/injection, schedule: Q04DX003 (ip), vehicle: saline with Tween-80 105 % of control

C/C(=N\O)c1ccccn1
inactive: dose: 50.0 mg/kg/injection, schedule: Q01DX009 (ip), vehicle: other 110 % of control | dose: 100.0 mg/kg/injection, schedule: Q01DX009 (ip), vehicle: other 111 % of control | dose: 200.0 mg/kg/injection, schedule: Q01DX009 (ip), vehicle: other 97 % of control | dose: 400.0 mg/kg/injection, schedule: Q01DX009 (ip), vehicle: other 90 % of control

COC(=O)[C@@H]1[C@H](O)[C@H](C)[C@H](O)[C@H](C)/C=C\C=C(C)C(=O)Nc2c(C)c(OC(C)=O)c3c(c2O)C(=O)C(C)=C2OCOC(=C23)C(C)=C[C@@](C)(O)[C@H](O)[C@@H](C)[C@H]1OC(C)=O
inactive: [1] 104 % of control | dose: 100.0 mg/kg/injection, schedule: Q01DX009 (ip), vehicle: carboxymethylcellulose (CMC) 103 % of control | [2] 94 % of control | dose: 200.0 mg/kg/injection, schedule: Q01DX009 (ip), vehicle: carboxymethylcellulose (CMC) 123 % of control | dose: 400.0 mg/kg/injection, schedule: Q01DX009 (ip), vehicle: carboxymethylcellulose (CMC) 97 % of control

CCOC(=O)/C=C(\CBr)OC
inactive: dose: 12.5 mg/kg/injection, schedule: Q01DX009 (ip), vehicle: Klucel (hydroxypropylcellulose) (HPC) 105 % of control | [6] 93 % of control

O=S(=O)(O)c1ccc(N=Nc2ccc(O)cc2)cc1
inactive: [12] 105 % of control | [13] 97 % of control | [14] 91 % of control

CCN(Cc1ccc(Cl)c(Cl)c1)c1ccc2nc(N)nc(N)c2c1C
inactive: dose: 3.12 mg/kg/injection, schedule: Q01DX009 (ip), vehicle: distilled water + Tween-80 110 % of control | dose: 3.13 mg/kg/injection, schedule: Q01DX009 (ip), vehicle: Klucel (hydroxypropylcellulose) (HPC) 89 % of control | dose: 6.25 mg/kg/injection, schedule: Q01DX009 (ip), vehicle: Klucel (hydroxypropylcellulose) (HPC) 94 % of control | dose: 6.25 mg/kg/injection, schedule: Q01DX009 (ip), vehicle: distilled water + Tween-80 115 % of control | dose: 12.5 mg/kg/injection, schedule: Q01DX009 (ip), vehicle: distilled water + Tween-80 122 % of control

CCC(C)C(C)(COC(N)=O)COC(N)=O (stereo unspecified)
inactive: [13] 97 % of control | [14] 102 % of control | dose: 400.0 mg/kg/injection, schedule: Q04DX003 (ip), vehicle: Klucel (hydroxypropylcellulose) (HPC) 105 % of control

CNC(=O)Nc1ccc(C(=O)NC(C)C)cc1
inactive: [6] 98 % of control | [7] 97 % of control | [1] 96 % of control | [2] 100 % of control | [3] 88 % of control

CCOC(=O)C(NC(=O)NC)C(=O)OCC
inactive: dose: 75.0 mg/kg/injection, schedule: Q01DX009 (ip), vehicle: Klucel (hydroxypropylcellulose) (HPC) 102 % of control | dose: 150.0 mg/kg/injection, schedule: Q01DX009 (ip), vehicle: Klucel (hydroxypropylcellulose) (HPC) 103 % of control | dose: 300.0 mg/kg/injection, schedule: Q01DX009 (ip), vehicle: Klucel (hydroxypropylcellulose) (HPC) 100 % of control

C[n+]1noc([O-])c1-c1ccccc1
inactive: [10] 101 % of control | dose: 100.0 mg/kg/injection, schedule: Q01DX009 (ip), vehicle: saline with Tween-80 97 % of control | [11] 103 % of control

CSCCC(NC(=O)OCC1c2ccccc2-c2ccccc21)C(=O)O (stereo unspecified)
inactive: [7] 103 % of control | [1] 98 % of control | [2] 87 % of control
